Consider one compound from paper PMC10070013, “Apigenin improves cytotoxicity of antiretroviral drugs against HTLV-1 infected cells through the modulation of AhR signaling” (Neuroimmune Pharmacology and Therapeutics, 2023).

Experiment [1] deals with T1, ATP binding cassette subfamily B member 1 (ABCB1/P-gp) (Homo sapiens, UniProt P08183).
T1 construct: Recombinant human ABCB1 (LS-G142372-20)
As to the kind of experiment: Nano-ITC with recombinant protein (positive control protein).

Experiment [2] addresses T2, aryl hydrocarbon receptor (AhR) (Homo sapiens, UniProt P35869).
T2 construct: Recombinant human AhR (LS-G13702-10)
Nature of the experiment: Nano-ITC with recombinant protein. The format is binding.

T1 sequence (P08183 whole entry): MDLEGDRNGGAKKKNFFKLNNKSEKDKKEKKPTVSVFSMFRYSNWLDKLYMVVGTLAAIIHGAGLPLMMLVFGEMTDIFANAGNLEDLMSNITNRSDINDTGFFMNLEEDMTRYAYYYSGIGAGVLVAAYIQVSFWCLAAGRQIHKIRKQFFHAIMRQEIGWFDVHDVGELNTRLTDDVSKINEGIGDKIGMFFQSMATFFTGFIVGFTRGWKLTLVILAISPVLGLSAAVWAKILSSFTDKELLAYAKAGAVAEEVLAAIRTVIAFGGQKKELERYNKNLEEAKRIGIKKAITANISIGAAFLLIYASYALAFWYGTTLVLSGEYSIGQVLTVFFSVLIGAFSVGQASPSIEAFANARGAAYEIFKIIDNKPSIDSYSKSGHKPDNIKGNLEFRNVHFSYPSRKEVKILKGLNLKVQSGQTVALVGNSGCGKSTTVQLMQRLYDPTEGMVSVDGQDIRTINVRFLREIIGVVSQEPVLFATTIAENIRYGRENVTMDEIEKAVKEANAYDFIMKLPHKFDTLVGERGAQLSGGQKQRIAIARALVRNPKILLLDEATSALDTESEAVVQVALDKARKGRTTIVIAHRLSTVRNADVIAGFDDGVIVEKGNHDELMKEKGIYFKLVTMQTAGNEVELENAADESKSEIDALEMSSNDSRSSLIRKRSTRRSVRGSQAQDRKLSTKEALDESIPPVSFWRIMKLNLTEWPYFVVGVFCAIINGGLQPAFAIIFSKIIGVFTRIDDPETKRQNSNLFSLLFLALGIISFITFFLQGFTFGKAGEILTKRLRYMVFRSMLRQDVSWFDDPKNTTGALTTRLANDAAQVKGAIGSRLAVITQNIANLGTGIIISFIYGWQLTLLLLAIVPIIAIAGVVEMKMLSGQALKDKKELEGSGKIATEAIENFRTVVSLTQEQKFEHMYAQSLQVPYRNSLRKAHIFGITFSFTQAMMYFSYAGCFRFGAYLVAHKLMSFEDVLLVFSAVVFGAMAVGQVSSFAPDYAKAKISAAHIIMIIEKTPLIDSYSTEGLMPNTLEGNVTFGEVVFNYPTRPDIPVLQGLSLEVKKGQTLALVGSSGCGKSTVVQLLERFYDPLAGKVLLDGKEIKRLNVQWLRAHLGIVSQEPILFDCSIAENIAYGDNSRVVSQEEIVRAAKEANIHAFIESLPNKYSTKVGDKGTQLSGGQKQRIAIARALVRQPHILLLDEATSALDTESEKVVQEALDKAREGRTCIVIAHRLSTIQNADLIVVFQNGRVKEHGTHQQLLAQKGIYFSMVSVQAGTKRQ
T2 sequence (P35869 11-848): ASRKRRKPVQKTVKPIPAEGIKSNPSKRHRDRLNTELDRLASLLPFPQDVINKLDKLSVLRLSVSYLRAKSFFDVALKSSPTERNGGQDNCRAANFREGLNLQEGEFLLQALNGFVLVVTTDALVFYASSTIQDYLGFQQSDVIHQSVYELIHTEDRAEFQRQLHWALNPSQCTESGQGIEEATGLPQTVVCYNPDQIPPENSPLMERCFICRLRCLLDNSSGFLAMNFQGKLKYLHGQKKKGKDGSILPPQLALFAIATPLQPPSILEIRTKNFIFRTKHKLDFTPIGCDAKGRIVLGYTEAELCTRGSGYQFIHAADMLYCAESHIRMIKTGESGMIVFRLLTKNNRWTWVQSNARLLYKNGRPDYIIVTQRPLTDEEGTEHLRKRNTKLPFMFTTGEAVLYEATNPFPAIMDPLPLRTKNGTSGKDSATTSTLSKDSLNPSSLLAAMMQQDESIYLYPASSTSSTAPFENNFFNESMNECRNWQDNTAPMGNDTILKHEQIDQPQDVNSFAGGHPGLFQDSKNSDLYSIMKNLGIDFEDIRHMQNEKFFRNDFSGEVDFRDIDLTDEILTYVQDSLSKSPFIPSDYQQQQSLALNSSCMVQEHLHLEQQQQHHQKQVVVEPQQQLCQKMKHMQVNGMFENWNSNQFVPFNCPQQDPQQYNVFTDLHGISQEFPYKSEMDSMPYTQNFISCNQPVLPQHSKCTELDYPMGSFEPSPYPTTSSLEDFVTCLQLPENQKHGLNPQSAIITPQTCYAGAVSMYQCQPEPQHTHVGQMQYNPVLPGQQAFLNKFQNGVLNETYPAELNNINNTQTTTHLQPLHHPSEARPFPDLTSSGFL

Consider `O=c1cc(-c2ccc(O)cc2)oc2cc(O)cc(O)c12` [Apigenin], for which the results for the Kd in experiment [1] and in experiment [2] were 0.001 µM and 4.24 µM, respectively.

As usually defined, the Kd is the free concentration of one partner at which half of the binding sites on the other are occupied at equilibrium, for simple one-to-one binding.
